In patent publication US20100120789A1, “Compound” (priority 2005, published 2010):

Row | SMILES | melting point [°C]
1 | O=C(NC12CC3CC(CC(C3)C1)C2)OCc1cccs1 [STX1711, Adamantan-1-yl-carbamic acid thiophen-2-ylmethyl ester] | 66 to 68
2 | O=C(NC12CC3CC(CC(C3)C1)C2)OCCc1cccs1 [STX1712, Adamantan-1-yl-carbamic acid 2-thiophen-2-yl-ethyl ester] | 67 to 69
3 | O=C(NCCc1cccs1)NC12CC3CC(CC(C3)C1)C2 [STX1714, 1-Adamantan-1-yl-3-(2-thiophen-2-yl-ethyl)-urea] | 138 to 142
4 | O=C(N1CCc2sccc2C1)C12CC3CC(CC(C3)C1)C2 [STX1721, Adamantan-1-yl-(6,7-dihydro-4H-thieno[3,2-c]pyridin-5-yl)-methanone] | 141 to 143
5 | Cc1nc2cc(NCC(=O)C(C)(C)C)ccc2s1 [STX1740, 3,3-Dimethyl-1-(2-methyl-benzothiazol-5-ylamino)-butan-2-one] | 108 to 111
6 | CN(CCc1ccccn1)C(=O)C12CC3CC(CC(C3)C1)C2 [STX1887, Adamantane-1-carboxylic acid methyl-(2-pyridin-2-yl-ethyl)-amide] | 64 to 65
7 | [O-][S+](Cc1cn(C23CC4CC(CC(C4)C2)C3)nn1)c1cc(Cl)ccc1Cl (centres unmarked) [STX1892, 1-Adamantan-1-yl-4-(2,5-dichloro-benzenesulfinylmethyl)-1H-[1,2,3]triazole] | 125 to 128
8 | COc1ccc(OCc2cn(C34CC5CC(CC(C5)C3)C4)nn2)cc1OC [STX1893, 1-Adamantan-1-yl-4-(3,4-dimethoxy-phenoxymethyl)-1H-[1,2,3]triazole] | 108 to 112
9 | Cn1ccnc1SCC(=O)C12CC3CC(CC(C3)C1)C2 [STX1898, 1-Adamantan-1-yl-2-(1-methyl-1H-imidazol-2-ylsulfanyl)-ethanone] | 65 to 69
10 | O=C(CSc1cccs1)C12CC3CC(CC(C3)C1)C2 [STX1902, 1-Adamantan-1-yl-2-(thiophen-2-ylsulfanyl)-ethanone] | 69 to 72
11 | O=C(C[S+]([O-])Cc1ccco1)C12CC3CC(CC(C3)C1)C2 (centres unmarked) [STX1908, 1-Adamantan-1-yl-2-(furan-2-ylmethanesulfinyl)-ethanone] | 75 to 79
12 | CN(CCc1cccs1)C(=O)C12CC3CC(CC(C3)C1)C2 [STX1910, Adamantane-1-carboxylic acid methyl-(2-thiophen-2-yl-ethyl)-amide] | 95 to 99
13 | Cn1ccnc1[S+]([O-])CC(=O)C12CC3CC(CC(C3)C1)C2 (centres unmarked) [STX1924, 1-Adamantan-1-yl-2-(1-methyl-1H-imidazole-2-sulfinyl)-ethanone] | 86 to 89
14 | O=C(C[S+]([O-])Cc1cccs1)C12CC3CC(CC(C3)C1)C2 (centres unmarked) [STX1929, 1-Adamantan-1-yl-2-(thiophen-2-ylmethanesulfinyl)-ethanone] | 95 to 98
15 | O=C(C[S+]([O-])c1cccs1)C12CC3CC(CC(C3)C1)C2 (centres unmarked) [STX1930, 1-Adamantan-1-yl-2-(thiophene-2-sulfinyl)-ethanone] | 114 to 115.5
16 | Cc1ccc(CN(C)C(=O)C23CC4CC(CC(C4)C2)C3)cc1 [STX2003, Adamantane-1-carboxylic acid methyl-(4-methyl-benzyl)-amide] | 93 to 95
17 | O=C(N1CCN(c2ccccn2)CC1)C12CC3CC(CC(C3)C1)C2 [STX2065, Adamantan-1-yl-(4-pyridin-2-yl-piperazin-1-yl)-methanone] | 137 to 140
18 | Cc1ccc(CN(C)C(=O)C23CC4CC(CC(C4)C2)C3)s1 [STX2067, Adamantane-1-carboxylic acid methyl-(5-methyl-thiophen-2-ylmethyl)-amide] | 83 to 85.5

Row | SMILES | melting point [°C]
19 | O=C(N1CCN(c2ccc(Cl)cc2)CC1)C12CC3CC(CC(C3)C1)C2 [STX2120, Adamantan-1-yl-[4-(4-chloro-phenyl)-piperazin-1-yl]methanone] | 183 to 185
20 | Cc1cccc(CN(C)C(=O)C23CC4CC(CC(C4)C2)C3)n1 [STX2134, Adamantane-1-carboxylic acid methyl-(6-methyl-pyridin-2-ylmethyl)-amide] | 76 to 77.5
21 | CN(Cc1cccnc1)C(=O)C12CC3CC(CC(C3)C1)C2 [STX2135, Adamantane-1-carboxylic acid methyl-pyridin-3-ylmethyl-amide] | 57 to 59.5
22 | CC(=O)Nc1ccc(NCC(=O)C23CC4CC(CC(C4)C2)C3)cc1 [STX2241, N-[4-(2-Adamantan-1-yl-2-oxo-ethylamino)-phenyl]acetamide] | 156 to 158
23 | CN(Cc1ccco1)C(=O)C12CC3CC(CC(C3)C1)C2 [STX2247, Adamantane-1-carboxylic acid furan-2-ylmethyl-methyl-amide] | 53.5 to 54.5
24 | Cc1csc(CN(C)C(=O)C23CC4CC(CC(C4)C2)C3)c1 [STX2254, Adamantane-1-carboxylic acid methyl-(4-methyl-thiophen-2-ylmethyl)-amide] | 87 to 88
25 | Cn1ccnc1S(=O)(=O)CC(=O)C12CC3CC(CC(C3)C1)C2 [STX2294, 1-Adamantan-1-yl-2-(1-methyl-1H-imidazole-2-sulfonyl)-ethanone] | 124 to 125
26 | O=C(CS(=O)(=O)c1cccs1)C12CC3CC(CC(C3)C1)C2 [STX2295, 1-Adamantan-1-yl-2-(thiophene-2-sulfonyl)-ethanone] | 117.5 to 119
27 | Cc1c(C(=O)CS(=O)(=O)Cc2ccc(Cl)cc2)sc2ccc(Cl)cc12 [STX2296, 1-(5-Chloro-3-methyl-benzo[b]thiophen-2-yl)-2-(4-chloro-phenylmethanesulfonyl)-ethanone] | 204.5 to 205.5
28 | CC(=O)Nc1ccc(S(=O)(=O)CC(=O)C23CC4CC(CC(C4)C2)C3)cc1 [STX2298, N-[4-(2-Adamantan-1-yl-2-oxo-ethanesulfonyl)-phenyl]-acetamide] | 151 to 151.5
29 | O=C(CS(=O)(=O)Cc1cccs1)C12CC3CC(CC(C3)C1)C2 [STX2299, 1-Adamantan-1-yl-2-(thiophen-2-ylmethanesulfonyl)-ethanone] | 95.5 to 98
30 | O=C(NCc1ccc(Cl)cc1)C1CCN(C(=O)C23CC4CC(CC(C4)C2)C3)CC1 [STX2306, 1-(Adamantane-1-carbonyl)-piperidine-4-carboxylic acid 4-chloro-benzylamide] | 150 to 152
31 | O=C(O)c1ccc(OCC(=O)C23CC4CC(CC(C4)C2)C3)cc1 [STX2318, 4-(2-Adamantan-1-yl-2-oxo-ethoxy)-benzoic acid] | 185.2
32 | COC(=O)Cc1ccc(OCC(=O)C23CC4CC(CC(C4)C2)C3)cc1 [STX2320, [4-(2-Adamantan-1-yl-2-oxo-ethoxy)-phenyl]-acetic acid methyl ester] | 71.9
33 | O=C(O)c1cccc(OCC(=O)C23CC4CC(CC(C4)C2)C3)c1 [STX2361, 3-(2-Adamantan-1-yl-2-oxo-ethoxy)-benzoic acid] | 156.2
34 | O=C(O)Cc1ccc(OCC(=O)C23CC4CC(CC(C4)C2)C3)cc1 [STX2364, [4-(2-Adamantan-1-yl-2-oxo-ethoxy)-phenyl]-acetic acid] | 153.4
35 | CCN(CC)C(=O)c1ccc(OCC(=O)C23CC4CC(CC(C4)C2)C3)cc1 [STX2375, 4-(2-Adamantan-1-yl-2-oxo-ethoxy)-N,N-diethyl-benzamide] | 103.9
